# Laboratory results from the NIST ThermoML archive (doi:10.1021/acs.jced.5b00773).
# Numbers after ± are expanded uncertainties.
# Settings: Liquid, Closed cell (Static) method
compound,measurement,setting,value
CCC(C)O (stereo not drawn) [butan-2-ol],vapor or sublimation pressure,473.46 K,1500 ± 10 kPa
CCOC(C)=O [ethyl acetate],vapor or sublimation pressure,462.75 K,1500 ± 10 kPa
COC(C)=O [methyl ethanoate],vapor or sublimation pressure,436.08 K,1500 ± 10 kPa
